Results from US7671058B2, “N-(3,4-disubstituted phenyl) salicylamide derivatives” (Institute of Medicinal Molecular Design, Inc., priority 2006, dated 2010).

Key:
STAT6 = STAT6 inhibition test: (GLS)x8/pTA-Luc luciferase reporter in U2-OS cells stimulated with human IL-4; assay type: cell-based; settings: human IL-4 40 ng/mL; for Inhibition Rate of STAT6 (%): compound 2 μM, 8 hours; for IC50: from inhibition rates at 1, 0.1, 0.01 and 0.001 μM, read-out: IC50 against activation of STAT6
Source text: (1) Construction of a STAT6 Reporter Plasmid
The Oligonucleotides (SEQ ID: 1, 2) containing two copies of STAT6 binding sequences (refer to J. Biol. Chem., vol. 276, No. 9, pp. 6675-6688 (2001).) were synthesized, and integrated into the enhancer region of the reporter plasmid pTA-Luc Vector (CLONTECH Laboratories, Inc.) at the restriction enzyme BgIII site.
When the oligonucleotide is integrated in positive direction into the plasmid, the upstream BglII site is not reconstructed. Therefore, STAT6 binding sequences can be increased by repeating integration of the oligonucleotide at the restriction enzyme BglII site.
In the present test, a plasmid including eight integrated STAT6 binding sequences was constructed and provided for the reporter assay as (GLS)x8/pTA-Luc. Confirmation of the sequences was carried out using an automated fluorescence sequencer (Model 310 (Applied Biosystems)).
(2) Transfection into U2-OS Cells and Inhibition Test for STAT6 Activation
U2-OS cells were seeded to at 2×10^4 cells/well in 96-well culture plates, and transfection was carried out using FuGENE 6 Transfection Reagent (Roche Diagnostics GmbH). The procedures of the transfection are shown below.
11 μg of reporter plasmid ((GLS)x8/pTA-Luc) and 1.1 μg of pCMV β (CLONTECH Laboratories, Inc.) were mixed in 1.1 mL of OPTI-MEM I medium (GIBCO BRL) (solution (A)).
33 μL of FuGENE 6 Transfection Reagent was mixed in 1.1 mL of OPTI-MEM I medium (solution (B)).
(§1) The above solution (A) and solution (B) were mixed, let them stand for 15 minutes at room temperature, then, 8.8 mL of OPTI-MEM I medium was added and diluted.
To this transfection solution, U2-OS cell suspension (11 mL) in McCoy's 5A medium (GIBCO BRL) containing 10% Fetal Bovine Serum (FBS; GIBCO BRL) at 2×10^5 cells/mL was added and well mixed.
(§2) 0.2 mL of the above solution was dispensed into each well of 96-well culture plates, and incubated for 24 hours (37° C., 5% CO2).
After removal of 50 μL of medium from each well, 50 μL of McCoy's 5A medium (serum-free) containing compound, of the present application was added to a final concentration of 0.01˜2 μM (0.001, 0.01, 0.1, 0.5, 1 or 2 μM), and the plates were incubated for 2 hours (37° C., 5% CO2).
10 μL of the McCoy's 5A medium (serum-free) containing human IL-4 (R&D Systems, Inc) was added to each well to achieve a final concentration of 40 ng/mL, and incubated for 8 hours (37° C., 5% CO2).
(§3) Medium was completely removed and plates were preserved at −80° C. until measurements.
(§4) Cell lysates were prepared by adding 40 μL of Passive Lysis Buffer (Promega Corporation) to each well.
(§5) 10 μL of each lysate was transferred to 96-well white plates. 50 μL of PicaGene L.T.2.0 (TOYO INK MFG. CO., LTD.) was added to each well, then, luminescence was measured after leaving for 10 minutes at room temperature.
(§6) 10 μL of each lysate was transferred to 96-well black plates. 100 μL of Z Buffer (preparation method will be explained later) was added to each well, and fluorescence was measured immediately.
(§7) 10 μL of each lysate was transferred to 96-well clear plates. 200 μL of protein assay reagent prepared from the BCA Protein Assay Kit (Pierce Biotechnology, Inc.) was added to each well, and, absorbance was measured after incubation for 30 minutes at 37° C.
(§8) For measurements of luminescence, fluorescence, and absorbance, microplate reader GENios (TECAN G.M.B.H.) was used.
(4) Calculation of Inhibition Rate
Luminescence values that show the degree of activation by IL-4 stimulation were normalized by β-gal values that show transfection efficiency. Using the normalized values, the following calculations were carried out using the luminescence values increased by IL-4 stimulation. Inhibition Rate(%)=[…] E: In the presence of the compound of the present application, increased luminescence value by IL-4 stimulation C: Without the presence of the compound of the present application, increased luminescence value by IL-4 stimulation […]

NF-κB = NF-κB inhibition test: pNFκB-Luc luciferase reporter in U2-OS cells stimulated with human TNF α; assay type: cell-based; settings: human TNF α 10 ng/mL; for Inhibition Rate of NF-κB (%): compound 2 μM, 8 hours; for IC50: from inhibition rates at 1, 0.1, 0.01 and 0.001 μM, read-out: IC50 against activation of NF-κB
Procedure: (1) Transfection to U2-OS Cells and Inhibition Test of Activation
U2-OS cells were seeded at 2×10^4 cells/well in 96-well culture plate, and transfection was carried out using FuGENE 6 Transfection Reagent (Roche Diagnostics GmbH). The procedures of the transfection are shown below.
11 μg of reporter plasmid (pNFκB-Luc; Stratagene Corporation) and 1.1 μg of pCMV β (CLONTECH Laboratories, Inc.) were mixed in 1.1 mL of OPTI-MEM I medium (GIBCO BRL) (solution (A)).
[…] of FuGENE 6 Transfection Reagent was mixed in 1.1 mL of OPTI-MEM I medium (solution (B)).
as §1
To this transfection solution, U2-OS cell suspension (11 mL) in McCoy's 5A medium (GIBCO BRL) containing 10% Fetal Bovine Serum (FBS; GIBCO BRL) at […] was added and well mixed.
as §2
After removal of 50 μL of medium from each well, 50 μL of McCoy's 5A medium (serum-free) containing compound of the present application was added to a final concentration of 0.01˜2 μM (0.001, 0.01, 0.1, 0.5, 1 or 2 μM), and the plates were incubated for 2 hours (37° C., 5% CO2).
10 μL of the McCoy's 5A medium (serum-free) containing human TNF α (PEPROTECH EC Ltd.) was added to each well to achieve a final concentration of 10 ng/mL, and incubated for 8 hours (37° C., 5% CO2).
as §3, §4, §5, §6, §7, §8
(3) Calculation of Inhibition Rate
Luminescence values that show the degree of activation by TNF α stimulation were normalized by β-gal values that show transfection efficiency. Using the normalized values, the following calculation was carried out using the luminescence values that increased by TNF α stimulation. Inhibition Rate(%)=[…] E: In the presence of the compound of the present application, increased luminescence values by TNF α stimulation C: Without the presence of the compound of the present application, increased luminescence values by TNF α, stimulation
The values of protein assay by BCA reagent were used for a simple assessment of cytotoxicity, and not used for the calculation of inhibition rates.
NF-κB Inhibition Rates are shown below. The values in parentheses in the table represent the concentration of the compound of the present application.
NF-κB inhibition rates where the concentrations of the compound of the present application were 1, 0.1, 0.01 and 0.001 μM were calculated, and the 50% inhibitory concentrations (IC50) of the compounds of the present application against activation of NF-κB were evaluated.

SMILES	Inhibition Rate of STAT6 (%) (STAT6)	Inhibition Rate of NF-κB (%) (NF-κB)	IC50 (STAT6)	IC50 (NF-κB)
Cl.O=C(Nc1ccc(OC2CCNC2)c(F)c1)c1cc(Cl)ccc1O (stereo not drawn) [compound 55]	35 (2 μM) %	16 (2 μM) %	–	–
Cc1ccc(O)c(C(=O)Nc2ccc(N3CCN(C)CC3)c(F)c2)c1.Cl [compound 57]	75 (2 μM) %	62 (2 μM) %	–	–
CN1CCN(c2ccc(NC(=O)c3ccc(F)cc3O)cc2F)CC1.Cl [compound 58]	70 (2 μM) %	59 (2 μM) %	–	–
CN1CCN(c2ccc(NC(=O)c3cc(F)ccc3O)cc2F)CC1.Cl [compound 59]	60 (2 μM) %	43 (2 μM) %	–	–
CN1CCN(c2ccc(NC(=O)c3cccc(Cl)c3O)cc2F)CC1.Cl [compound 60]	26 (2 μM) %	16 (2 μM) %	–	–
CN1CCN(c2ccc(NC(=O)c3ccc(Cl)cc3O)cc2F)CC1.Cl [compound 61]	86 (2 μM) %	80 (2 μM) %	–	–
CN1CCN(c2ccc(NC(=O)c3cc(C(F)(F)F)ccc3O)cc2F)CC1.Cl [compound 62]	96 (2 μM) %	89 (2 μM) %	–	–
NC1CCC(Oc2ccc(NC(=O)c3cc(Cl)ccc3O)cc2F)CC1 (stereo not drawn) [compound 65]	42 (2 μM) %	20 (2 μM) %	–	–
NC1CCN(c2ccc(NC(=O)c3cc(Cl)ccc3O)cc2F)CC1 [compound 66]	85 (2 μM) %	92 (2 μM) %	3.79 nM	9.74 nM
Cl.NC1CCN(c2ccc(NC(=O)c3cc(Br)ccc3O)cc2F)CC1 [compound 67]	94 (2 μM) %	93 (2 μM) %	5.32 nM	16 nM
CN1CCN(c2ccc(NC(=O)c3cc(Br)ccc3O)cc2F)CC1 [compound 69]	79 (2 μM) %	76 (2 μM) %	10.6 nM	30.3 nM
Cl.NC1CCN(c2ccc(NC(=O)c3ccc(Cl)cc3O)cc2F)CC1 [compound 71]	92 (2 μM) %	94 (2 μM) %	3.36 nM	8.41 nM
CCC1CN(c2ccc(NC(=O)c3cc(Cl)ccc3O)cc2F)CCN1.Cl (stereo not drawn) [compound 72]	37 (2 μM) %	41 (2 μM) %	–	–
Cl.NC1CCN(c2ccc(NC(=O)c3cc(Cl)ccc3O)cc2C(F)(F)F)CC1 [compound 74]	80 (2 μM) %	84 (2 μM) %	105 nM	66.5 nM
Cl.NC1CCN(c2ccc(NC(=O)c3cc(Cl)ccc3O)cc2Cl)CC1 [compound 75]	76 (2 μM) %	78 (2 μM) %	76 nM	35.8 nM
Cl.O=C(Nc1ccc(N2CCCNCC2)c(C(F)(F)F)c1)c1cc(Cl)ccc1O [compound 76]	95 (2 μM) %	94 (2 μM) %	32.9 nM	20 nM
CN1CCCN(c2ccc(NC(=O)c3ccc(Cl)cc3O)cc2F)CC1 [compound 77]	90 (2 μM) %	89 (2 μM) %	7.29 nM	8.44 nM
CN1CCN(c2ccc(NC(=O)c3cc(Cl)ccc3O)cc2C#N)CC1 [compound 79]	59 (2 μM) %	59 (2 μM) %	–	–
O=C(Nc1ccc(N2CCCNCC2)c(F)c1)c1ccc(Cl)cc1O [compound 80]	91 (2 μM) %	89 (2 μM) %	2.23 nM	8.11 nM
Cl.O=C(Nc1ccc(N2CCCNCC2)c(Cl)c1)c1cc(Cl)ccc1O [compound 81]	92 (2 μM) %	90 (2 μM) %	10.9 nM	17.8 nM
CC1CCC(C)N1c1ccc(NC(=O)c2cc(Cl)ccc2O)cc1F.Cl (stereo not drawn) [compound 83]	80 (2 μM) %	59 (2 μM) %	–	–
CC1CCC(C)N1c1ccc(NC(=O)c2cc(Cl)ccc2O)cc1F (stereo not drawn) [compound 84]	83 (2 μM) %	61 (2 μM) %	–	–
CC1CN(c2ccc(NC(=O)c3cc(Cl)ccc3O)cc2F)C(C)CN1.Cl.Cl (stereo not drawn) [compound 85]	72 (2 μM) %	79 (2 μM) %	–	–
